Experimental data taken from paper PMC12797238 (ACS Infectious Diseases, 2025).

Assays:
[1] = test system: Trypanosoma brucei bloodstream forms; experiment: Drug sensitivity assay, dose–response curves, T. brucei; assay type: cell-based; conditions: for EC50: bloodstream forms, mean, n ≥ 3; for T. brucei selectivity: relative to human BJ fibroblast EC50
Source text: (§1) Human fibroblasts, T. brucei, T. gambiense, P. falciparum, L. mexicana, and B. divergens were cultivated as described previously, and dose–response curves were obtained by their cultivation on 96 well plates in a 2-fold seriel dilution of the appropriate drug.

Human BJ Fibroblast = experiment: Drug sensitivity assay, dose–response curves, human BJ fibroblasts; assay type: cell-based; conditions: mean, n ≥ 3
Source text: as §1

Row | Molecule | EC50 [1] [nM] | T. brucei selectivity [1] | EC50 (Human BJ Fibroblast) [nM] | EC50 ([1]; Trypanosoma brucei) [nM] | decrease in antiparasitic activity compared with compound 2 ([1]; T. brucei) [fold]
1 | CC(=O)N(O)CCCCCNC(=O)CCC(=O)N(O)CCCCCNC(=O)CCC(=O)N(O)CCCCCN(CCCCCCCCCC[P+](c1ccccc1)(c1ccccc1)c1ccccc1)CCCCCCCCCC[P+](c1ccccc1)(c1ccccc1)c1ccccc1.[Cl-].[Cl-] [compound 2, (triphenylphosphine-C10)2-DFO] | 56.9 | 156 | 8910 | – | –
2 | O=C(NCCCCCCCC[P+](c1ccccc1)(c1ccccc1)c1ccccc1)c1ccc(-n2nc(-c3ccccc3O)nc2-c2ccccc2O)cc1.[Cl-] [compound 12, triphenylphosphine-C8-DFX] | 35.8 | 55 | 1970 | – | –
3 | CC(=O)N(O)CCCCCNC(=O)CCC(=O)N(O)CCCCCNC(=O)CCC(=O)N(O)CCCCCN(CCCCCCCCCCCC[P+](c1ccccc1)(c1ccccc1)c1ccccc1)CCCCCCCCCCCC[P+](c1ccccc1)(c1ccccc1)c1ccccc1.Cl.[Cl-].[Cl-] [compound 6, (triphenylphosphine-C12)2-DFO] | 73.1 | 50 | 3630 | – | –
4 | (tributylamine-C10)2-DFO [compound 3] | 73.6 | 111 | 8140 | – | –
5 | (triphenylphosphine-C10-triazole)2-DFO [compound 10] | 134 | 31 | 4130 | – | –
6 | CC(=O)N(O)CCCCCNC(=O)CCC(=O)N(O)CCCCCNC(=O)CCC(=O)N(O)CCCCCN(CCCCCCCCCC[P+](Cc1ccccc1)(Cc1ccccc1)Cc1ccccc1)CCCCCCCCCC[P+](Cc1ccccc1)(Cc1ccccc1)Cc1ccccc1.Cl.[Cl-].[Cl-] [compound 7, (tribenzylphosphine-C10)2-DFO] | 186 | 14 | 2550 | – | –
7 | (tricylohexylphosphine-C10)2-DFO [compound 5] | 52 | 59 | 3080 | – | –
8 | O=C(NCCCCCC[P+](c1ccccc1)(c1ccccc1)c1ccccc1)c1ccc(-n2nc(-c3ccccc3O)nc2-c2ccccc2O)cc1.[Cl-] [compound 13, triphenylphosphine-C6-DFX] | 49.8 | 302 | 15000 | – | –
9 | CC(=O)N(O)CCCCCNC(=O)CCC(=O)N(O)CCCCCNC(=O)CCC(=O)N(O)CCCCCN [compound 16, deferoxamine, reference compound] | – | – | > 25000 | > 25000 | –
10 | CCCCCCCC[P+](CCCCCCCC)(CCCCCCCC)CCCCCCCCCCN(CCCCCCCCCC[P+](CCCCCCCC)(CCCCCCCC)CCCCCCCC)CCCCCN(O)C(=O)CCC(=O)NCCCCCN(O)C(=O)CCC(=O)NCCCCCN(O)C(C)=O.Cl.[Cl-].[Cl-] [compound 8, (trioctylphosphine-C10)2-DFO] | 134 | 22 | 2920 | – | –
11 | CC(=O)N(O)CCCCCNC(=O)CCC(=O)N(O)CCCCCNC(=O)CCC(=O)N(O)CCCCCNCCCCCCCCCC[P+](c1ccccc1)(c1ccccc1)c1ccccc1 [compound 1, triphenylphosphine-C10-DFO] | 882 | – | > 25000 | – | –
12 | (tributylphosphine-C10)2-DFO [compound 4] | 281 | 10 | 2840 | – | –
13 | (dimethylphenylphosphine-C10)2-DFO [compound 9] | 1150 | – | > 25000 | – | ~20
